The values below come from paper PMC8881469, “Molecular recognition of formylpeptides and diverse agonists by the formylpeptide receptors FPR1 and FPR2” (Nature Communications, 2022).

In one test the test system is FPR1 D106A. Briefly: cAMP accumulation assay, HEK293 cells, Epac-based FRET biosensor H187, 1 µM forskolin. Type of test: cell-based, human. Particulars: FPR1 D106A vs wild type. As for the experimental part:
(§1) An Epac-based FRET cAMP biosensor H187 was used to measure cellular cAMP levels. The plasmid encoding H187 was transfected into HEK293 cells to make stable cells reporting intracellular cAMP levels. In brief, the H187 stable cells were seeded in poly-D-lysine treated 96-well black clear-bottom plate at 30,000 cells per well. 24 h later, cells were transiently transfected with DNA encoding the N-terminal FLAG-tagged wild-type FPR1, FPR2 or mutants at an amount of 0.1 µg DNA per well. Assays were performed 24 h after transfection. Cells were washed twice with HBSS buffer and incubated at room temperature for 30 min before the addition of forskolin to a final concentration of 1 µM. The intracellular cAMP level was measured using a multimode reader (Spark 20 M, TECAN) measuring the fluorescence emission intensity at 485 nm and 535 nm upon the excitation at 430 nm. 15 min after forskolin incubation, cells were stimulated with agonists at different concentrations and measured for additional 20 min. The FRET signal was calculated as the normalized FRET ratio of fluorescence emission at 535 nm (F535) divided by emission at 485 nm (F485). The EC50 was determined with the FRET ratio at the timepoint of 1600 s. The data analysis was performed using the nonlinear regression fit logIC50 mode in GraphPad Prism.
Background: Cyclic AMP is a second messenger, typically raised through Gs and lowered through Gi signalling.

The subject of the next test is FPR1 F102H. The description is as above. It is filed as cell-based, human. Particulars: FPR1 F102H vs wild type. As for the experimental part:
as §1

Another test deals with FPR1 R201A. The description is as above. Type of test: cell-based, human. Particulars: FPR1 R201A vs wild type. The method, then:
as §1

Another test relates to FPR1 R205A. The description is as above. It is filed as cell-based, human. The note with it: FPR1 R205A vs wild type. As for the experimental part: as §1
Another test concerns FPR1 R84D. The description is as above. The note with it: FPR1 R84D vs wild type. It is filed as cell-based, human. As for the experimental part: as §1
For the next test, the system named is FPR1 Y257F. Described as above. Type of test: cell-based, human. The note with it: FPR1 Y257F vs wild type. As for the experimental part:
as §1

The subject of the next test is FPR1 versus FPR2. The note with it: cited from earlier work.
Test [1] relates to FPR1. The note with it: short formylpeptides; cited from earlier work. The source says:
The human formylpeptide receptor (FPR) family comprises of three members, FPR1, FPR2 (also named FPRL1), and FPR3[1]. They were initially discovered and characterized as pattern recognition G protein-coupled receptors (GPCRs) to recognize peptides with N-terminal formyl methionine, which are derived from invading pathogens or host mitochondria as pathogen- or damage-associated molecular patterns (PAMPs and DAMPs)[1]–[5]. FPR1 and FPR2 share a high sequence similarity, yet they display different preferences of formylpeptides. FPR1 is a high-affinity receptor for many short formylpeptides suc ...

For test [2] the following is noted: multiple studies; cited from earlier work.
The next test has as its system FPR2 F110A. Briefly: cAMP accumulation assay, HEK293 cells, Epac-based FRET biosensor H187, 1 µM forskolin. Type of test: cell-based, human. The method, then:
as §1

The subject of test [3] is FPR2 R201A. The test is described as above. It is filed as cell-based, human. As for the experimental part:
as §1

Test [4] concerns FPR2 R205A. Described as above. Type of test: cell-based, human. As for the experimental part:
as §1

The subject of test [5] is FPR2. The note with it: relative to C43; cited from earlier work. The source says: Similar to peptide agonists, C43 causes conformational changes of residues in the activation chamber including V113^3.40 and W254^6.48 through direct interactions to activate the receptor.
The test system of test [6] is FPR1. Particulars: cited from earlier work.
Test [7] relates to FPR2. The note with it: cited from earlier work.
Test [8] has as its system FPR2 R201A. The note with it: cited from earlier work. The source says: (§2) To investigate critical structural determinants for the binding of CGEN-885A, we measured the CGEN-885A-induced signaling of FPR2 with mutations of residues in the CGEN-885A-binding pocket. […] Considering the negatively charged environment of the ligand-b ...
Test [9] has as its system FPR2 R205A. The note with it: cited from earlier work.
Text: as §2

Test [10] has as its system FPR2. Particulars: at various concentrations; cited from earlier work. The source says:
This may be due to the coupling of Gi, which stabilizes the receptor in one active conformation. Thus, it is difficult to speculate on the specific conformational states of FPR2 associated with pro-inflammatory and pro-resolving agonists.

Read-outs that look alike come from different tables or passages of the source.

Take “N-formyl-Met-Leu-Phe [fMLF, prototypical formylpeptide]”: the “agonistic potency, effect of mutation D106A” value in the test with FPR1 D106A was “compromised agonistic potency”. Also, the “potency in activating FPR1, effect of mutation of F102 to FPR2 counterpart” value in the test on FPR1 F102H is “reduced potency”. Further, the “agonistic potency, effect of mutation R201A” value in the test on FPR1 R201A is recorded as “compromised agonistic potency”. The “agonistic potency, effect of mutation R205A” value in the test on FPR1 R205A was “compromised agonistic potency”. Also, in the test with FPR1 R84D, the “potency in activating FPR1, effect of mutation R84D” value is given as “reduces the potency”. Also, in the test with FPR1 Y257F, the “potency in activating FPR1, effect of mutation of Y257 to FPR2 counterpart” value is reported as “reduced potency”. The “fold less potent (in terms of EC50) in inducing FPR2 signaling than FPR1” value in the test with FPR1 versus FPR2 (FPR2 relative to FPR1) was “about 1000 fold”. Also, the FPR1 affinity result in the test on FPR1 [1] is “high-affinity”.
As for `COc1cc(F)c([C@@H]2CNC(=O)[C@H]2NC(=O)Nc2ccccc2)c(F)c1` [BMS-986235], the “pro-resolving and cardiac protective effects” value in [2] was “pro-resolving and cardiac protective effects”.
With `CC(C)c1c(NC(=O)Nc2ccc(Cl)cc2)c(=O)n(-c2ccccc2)n1C` [C43], the “agonistic action, effect of mutation F110A” value with FPR2 F110A was “nearly undetectable agonistic action”. In addition, the “agonistic action, effect of mutation R201A” value in the test on FPR2 R201A [3] is “nearly undetectable agonistic action”. Also, the “agonistic action, effect of mutation R205A” value in the test with FPR2 R205A [4] is recorded as “nearly undetectable agonistic action”. The “ligand potency on alternating the para-position of the chloride group” value with FPR2 [5] was “significant loss of ligand potency”. The “agonist activity on FPR1” value with FPR1 [6] (small-molecule agonist) is reported as “potent”. The “agonist activity on FPR2” value in the test on FPR2 [7] (small-molecule agonist) is “potent”.
Take “fMLFII [formylpeptide agonist for both FPR1 and FPR2]”: the “fold higher potency in activating FPR1 than FPR2” value in the test on FPR1 versus FPR2 (FPR1 relative to FPR2) is listed as ~ 100 fold. The “affinity for FPR1 relative to FPR2” value with FPR1 versus FPR2 (FPR1 vs FPR2) was “higher affinity”. Besides, the “agonist activity on FPR1” value with FPR1 [6] (formylpeptide agonist) is given as “potent”. The “agonist activity on FPR2” value in the test on FPR2 [7] (formylpeptide agonist) is reported as “potent”.
As to WKYMVm, the “agonistic activity, effect of mutation R201A” value with FPR2 R201A [8] is recorded as “much compromised agonistic activities”. In the test on FPR2 R205A [9], the “agonistic activity, effect of mutation R205A” value was “much compromised agonistic activities”.
Consider `COc1cccc(Cc2cc(C)nn(C(C)C(=O)Nc3ccc(Br)cc3)c2=O)c1` (centres unmarked) [Compound 17b], for which the “pro-resolving and cardiac protective effects” value in test [2] was “pro-resolving and cardiac protective effects”.
On to `CCCCC[C@@H](O)/C=C/C=C\C=C\C=C\[C@@H](O)[C@@H](O)CCCC(=O)O` [ATL, aspirin-triggered 15-epi-lipoxin A4], for which the FPR2 signaling responses entry in the test on FPR2 [10] was “unusual biphasic signaling responses”.
